Consider 1 compound from publication PMC10897598, “TwinF interface inhibitor FP802 stops loss of motor neurons and mitigates disease progression in a mouse model of ALS” (Cell Reports Medicine, 2024).

Data set [1] is described as follows: FP802 concentration in the spinal cord after subcutaneous osmotic pump delivery. The format is in vivo. An excerpt: We next used FP802 in the transgenic SOD1^G93A mouse model of ALS that expresses mutant human SOD1 with a glycine to alanine substitution at position 93 and whose general features resemble ALS in humans.[24]^,[25] SOD1^G93A mice represent a widely accepted animal model used extensively in ALS drug discovery to evaluate the efficacy of compounds now in clinical trials, which include masitinib, pridopidine, fasudil, guanabenz, and AMX0035.[26]^,[27]^,[28]^,[29]^,[30]^,[31]^,[32] We first confirmed using immunoblot analysis the reduction of EAAT2/GLT-1 expression in the spinal cord of SOD1^G93A mice (Figures 1F and 1G). Deregulation of glutamate uptake systems may lead to an increase in toxic eNMDAR signaling, which could be the cause of motor neuron death. To test this hypothesis, we applied FP802 subcutaneously to SOD1^G93A mice using an implanted ALZET osmotic mini pump to achieve a steady release of the drug. […] Following successful deactivation of the NMDAR/TRPM4 death signaling complex by FP802 in vivo, we next assessed potential therapeutic benefits of FP802 in SOD1^G93A mice. To implement an experimental design that resembles a clinical situation, we started treatment of SOD1^G93A mice with FP802 at the time of onset of motor deficits, which was around week 15.[33]^,[34]
A total of 83 heterozygous SOD1^G93A and 22 wild-type littermates were employed in this study. Eight WT and 12 SOD1^G93A mice were used to determine the EAAT2 protein levels in the spinal cord. Three SOD1^G93A mice were treated with FP802 to explore the concentration of FP802 in the spinal cord. Four SOD1^G93A mice were used to test the tolerability of mice to subcutaneously ALZET osmotic pump (type 2004) implantation with FP802 that allowed a continuous and constant supply of compound to the animals for 4 weeks. Eight wild-type mice were used to explore the disruption of the NMDAR/TRPM4 death signaling complex by FP802. In total, 52 SOD1^G93A mice were treated with FP802 or vehicle via ALZET osmotic pump from week 15 for 30 days (four cohorts). […]

A short description of data set [2]: Hematology of treated SOD1G93A mice. The format is in vivo, mouse. As to conditions: 40 mg/kg/day s.c. pump. On the procedure:
All hematology and most serum clinical chemistry analyses were carried out by IDEXX Laboratories, Germany. The neurofilament light chain levels in serum were determined by PBL Assay Science (USA) using the Simoa NF-light Advantage Kit (Quanterix Cat #103186).
Vehicle FP802 n Significance 95% Interval
Anisocytosis (%) 0 0 4 n.a. -
Band neutrophils 0 0 4 n.a. -
Basophils (%) 0 0 4 n.a. -
Atypical cells 0 0 4 n.a. -
Table S2. Hematology of SOD1G93A mice treated with vehicle or FP802.
FP802 delivered with a subcutaneously implanted ALZET osmotic pump at 40 mg/kg/day for 4 weeks starting at
References were from Charles
River Laboratories datasheets for C57BL6 mice. Related to Figure 2.

`CCN(CCN)Cc1cccc(Cl)c1` [FP802]: in data set [1] (SOD1G93A mice, 40 mg/kg/day s.c. ALZET osmotic pump, 2 weeks, n = 3), the “concentration in the spinal cord” value is recorded as 7.54 ± 4.79 nmol/g. The concentration at 2 weeks in data set [1] (SOD1G93A transgenic, mouse, spinal cord, sc, SOD1G93A mice, 40 mg/kg/day s.c., 2 weeks, read-out: concentration in the spinal cord, corresponding molar concentration) is 3 to 12 µM. For the same compound, the “crossing of the mouse blood-spinal cord barrier” value in data set [1] (s.c. ALZET osmotic mini pump) was “readily crossed”. In data set [2] (4 weeks), this compound yielded an Anisocytosis of 0%, an Atypical cells of 0, a Band neutrophils of 0 and a Basophils of 0%. Besides, in data set [2] (4 weeks), the Eosinophils was 0.25 ± 0.50%, the Hematocrit was 50.25 ± 1.71%, the Hemoglobin worked out at 14.13 ± 0.68 g/dL and the Leukocytes came out at 3.53 ± 1.32 G/L. For the same compound, in data set [2] (4 weeks), the Lymphocyte turned out to be 71.50 ± 5.57%, the MCH is 14.00 ± 0.12 pg, the MCHC is given as 28.50 ± 0.58 g/dL and the MCV is reported as 49.75 ± 0.50 fL. In data set [2] (4 weeks), this compound came in with a Monocyte of 4.25 ± 1.26%, a Reticulocyte of 5.10 ± 0.81%, a Segmented neutrophils of 22.50 ± 6.40% and a Thrombocytes of 1506.00 ± 174.68 G/L. For the same compound, in data set [2] (4 weeks), the “adverse effects on the hematology” value was “no adverse effects”. The Erythrocyte in data set [2] (4 weeks from 15 weeks of age) worked out at 10.08 ± 0.38 T/L.
